From patent US20240092799A1, “MNK INHIBITORS” (Hepagene Therapeutics (HK) Limited, priority 2020, published 2024)

What follows are molecules tested against MNK2 (Homo sapiens (Human), UniProt Q9HBH9) (assay: MNK Biochemical Enzymatic Assay (ADP-Glo), MNK2 binding assay).
Procedure: MNK Biochemical Enzymatic Assay. This protocol establishes the binding assays for MNK1 and MNK2 using ADP-Glo assay. MNK phosphorylates the substrate and converts ATP to ADP, which was detected by Envision and used to reflect the reminding activity of MNK. Reagents and equipment used in the assay are listed below, followed by the protocol.
• a) Add 50 μL compound to 384-well dilution plate • b) Dilute compound 1:3 in succession in DMSO for each column for 10+0 pts (refer to dilution plate map) • c) Transfer 0.1 μL diluted compound solution in each row to 384 assay plate using Echo, each column containing 2 replicates (refer to assay plate map) • d) Add 5 μL enzyme working solution to 384-well assay plate, centrifuge 1000 RPM for 1 min • e) Incubate at 25° C. for 15 min • f) Add 5 μL substrate working solution to initiate reaction • g) Incubate at 25° C. for 60 min • h) Add 10 μL ADP Glo reagent, centrifuge 1000 RPM for 1 min • i) Incubate at 25° C. for 60 min • j) Add 20 μL kinase detection reagent, centrifuge 1000 RPM for 1 min • k) Incubate at 25° C. for 60 min • l) Read on Envision for US LUM as RLU • m) Data analysis: IC50s were determined based on a non-linear regression analysis of data collected.

Chain of MNK2 (Q9HBH9 whole entry): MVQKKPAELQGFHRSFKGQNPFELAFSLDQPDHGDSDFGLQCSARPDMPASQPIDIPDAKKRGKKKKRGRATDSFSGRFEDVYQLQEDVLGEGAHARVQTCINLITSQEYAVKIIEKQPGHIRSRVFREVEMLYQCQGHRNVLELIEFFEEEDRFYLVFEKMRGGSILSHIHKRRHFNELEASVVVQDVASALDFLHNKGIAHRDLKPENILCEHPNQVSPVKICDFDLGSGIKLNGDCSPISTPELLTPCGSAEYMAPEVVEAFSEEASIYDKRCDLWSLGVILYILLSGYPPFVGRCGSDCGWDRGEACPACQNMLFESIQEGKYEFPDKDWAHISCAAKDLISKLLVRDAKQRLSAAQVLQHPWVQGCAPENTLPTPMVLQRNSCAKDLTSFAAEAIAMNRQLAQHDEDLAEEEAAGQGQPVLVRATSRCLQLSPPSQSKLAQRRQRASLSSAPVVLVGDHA

Row | IC50 [nM] | Compound
1 | 10 to 100 | C[C@@H]1CN(C(=O)C2CCc3c(sc4ncnc(Nc5cc6c(s5)C(=O)NC65CCCCC5)c34)C2)CCN1C (stereo partly drawn) [Compound XXV-A, 2′-((7-((R)-3,4-Dimethylpiperazine-1-carbonyl)-5,6,7,8-tetrahydrobenzo[4,5]thieno[2,3-d]pyrimidin-4-yl)amino)spiro[cyclohexane-1,4′-thieno[2,3-c]pyrrol]-6′(5′H)-one]
2 | 10 to 100 | O=C1NC2(CCCCC2)c2cc(Nc3ccncn3)sc21 [Compound X-A, 2′-(pyrimidin-4-ylamino)spiro[cyclohexane-1,4′-thieno[2,3-c]pyrrol]-6′(5′H)-one]
3 | > 1000 | O=C1NC2(CCCCC2)c2cc(Nc3cc(N4CCCC4)ncn3)sc21 [Compound XXIII-H, 2′-((6-(Pyrrolidin-1-yl)pyrimidin-4-yl)amino)spiro[cyclohexane-1,4′-thieno[2,3-c]pyrrol]-6′(5′H)-one]
4 | 10 to 100 | O=C1NC2(CCCCC2)c2cc(Nc3ncnc4sc5c(c34)CCC(C(=O)O)C5)sc21 (centres unmarked) [Compound XXV-6, 4-((6′-Oxo-5′,6′-dihydrospiro[cyclohexane-1,4′-thieno[2,3-c]pyrrol]-2′-yl)amino)-5,6,7,8-tetrahydrobenzo[4,5]thieno[2,3-d]pyrimidine-7-carboxylic acid]
5 | 10 to 100 | O=C1NC2(CCCCC2)c2cc(Nc3cc(N[C@H]4CCC[C@@H]4O)ncn3)sc21 [Compound XXIII-X, 2′-((6-(((1S,2S)-2-hydroxycyclopentyl)amino)pyrimidin-4-yl)amino)spiro[cyclohexane-1,4′-thieno[2,3-c]pyrrol]-6′(5′H)-one]
6 | 10 to 100 | Nc1cc(Nc2cc3c(s2)C(=O)NC32CCCCC2)ncn1 [Compound X, 2′-((6-Aminopyrimidin-4-yl)amino)spiro[cyclohexane-1,4′-thieno[2,3-c]pyrrol]-6′(5′H)-one]
7 | 100 to 1000 | O=C1NC2(CCCCC2)c2cc(Nc3ncnc(NC(=O)C4CC4)c3Cl)sc21 [Compound XX-7, N-(5-Chloro-6-((6′-oxo-5′,6′-dihydrospiro[cyclohexane-1,4′-thieno[2,3-c]pyrrol]-2′-yl)amino)pyrimidin-4-yl)cyclopropanecarboxamide]
8 | 10 to 100 | Nc1ncnc(Nc2cc3c(s2)C(=O)NC32CCCCC2)c1Cl [Compound XX, 2′-((6-Amino-5-chloropyrimidin-4-yl)amino)spiro[cyclohexane-1,4′-thieno[2,3-c]pyrrol]-6′(5′H)-one]
9 | > 1000 | NC1CCN(c2cc(Nc3cc4c(s3)C(=O)NC43CCCCC3)ncn2)C1 (centres unmarked) [Compound XXIII-D, 2′-((6-(3-Aminopyrrolidin-1-yl)pyrimidin-4-yl)amino)spiro[cyclohexane-1,4′-thieno[2,3-c]pyrrol]-6′(5′H)-one]
10 | 100 to 1000 | Cc1c(NC(=O)C2CC2)ncnc1Nc1cc2c(s1)C(=O)NC21CCCCC1 [Compound XX-C, N-(5-Methyl-6-((6′-oxo-5′,6′-dihydrospiro[cyclohexane-1,4′-thieno[2,3-c]pyrrol]-2′-yl)amino)pyrimidin-4-yl)cyclopropanecarboxamide]
11 | 100 to 1000 | COc1c(NC(=O)C2CC2)ncnc1Nc1cc2c(s1)C(=O)NC21CCCCC1 [Compound XX-B, N-(5-Methoxy-6-((6′-oxo-5′,6′-dihydrospiro[cyclohexane-1,4′-thieno[2,3-c]pyrrol]-2′-yl)amino)pyrimidin-4-yl)cyclopropanecarboxamide]

The remaining lines, values behind:

Row | Compound | IC50 [nM]
12 | CC(=O)N(C)c1cccc(Nc2cc(Nc3cc(C)c4c([n+]3[O-])C3(CCCCC3)NC4=O)ncn2)c1 [Compound XXIX-N, 4′-methyl-2′-((6-((3-(N-methylacetamido)phenyl)amino)pyrimidin-4-yl)amino)-5′-oxo-5′,6′-dihydrospiro[cyclohexane-1,7′-pyrrolo[3,4-b]pyridine] 1′-oxide] | 10 to 100
13 | CC(=O)N1CC[C@H](Nc2cc(Nc3cc(C)c4c([n+]3[O-])C3(CCCCC3)NC4=O)ncn2)C1 [Compound XXIX-J, (S)-2′-((6-((1-acetylpyrrolidin-3-yl)amino)pyrimidin-4-yl)amino)-4′-methyl-5′-oxo-5′,6′-dihydrospiro[cyclohexane-1,7′-pyrrolo[3,4-b]pyridine] 1′-oxide] | 100 to 1000
14 | COC(=O)C1(Nc2cc(Nc3cc(C)c4c([n+]3[O-])C3(CCCCC3)NC4=O)ncn2)CCOC1 (centres unmarked) [Compound XXIX-AAG, 2′-((6-((3-(methoxycarbonyl)tetrahydrofuran-3-yl)amino)pyrimidin-4-yl)amino)-4′-methyl-5′-oxo-5′,6′-dihydrospiro[cyclohexane-1,7′-pyrrolo[3,4-b]pyridine] 1′-oxide] | 100 to 1000
15 | Cc1cccnc1Nc1cc(Nc2cc3c(s2)C(=O)NC32CCCCC2)ncn1 [Compound XXIII-S, 2′-((6-((3-methylpyridin-2-yl)amino)pyrimidin-4-yl)amino)spiro [cyclohexane-1,4′-thieno[2,3-c]pyrrol]-6′(5′H)-one] | 100 to 1000
16 | Cc1cc(-c2cc(-c3cc(N)ncn3)no2)cc2c1C(=O)NC21CCCCC1 [Compound VII, 6′-(3-(6-Aminopyrimidin-4-yl)isoxazol-5-yl)-4′-methylspiro[cyclohexane-1,1′-isoindolin]-3′-one] | > 1000
17 | Cc1cc(Nc2cc(N[C@H]3CC[C@@H](O)C3)ncn2)[n+]([O-])c2c1C(=O)NC21CCCCC1 (relative stereo) [Compound XXIX-Y, 2′-((6-((cis-3-hydroxycyclopentyl)amino)pyrimidin-4-yl)amino)-4′-methyl-5′-oxo-5′,6′-dihydrospiro[cyclohexane-1,7′-pyrrolo[3,4-b]pyridine] 1′-oxide] | 10 to 100
18 | Cn1cccc(Nc2cc(Nc3cc4c(s3)C(=O)NC43CCCCC3)ncn2)c1=O [Compound XXIV-L, 2′-((6-((1-methyl-2-oxo-1,2-dihydropyridin-3-yl)amino)pyrimidin-4-yl)amino)spiro[cyclohexane-1,4′-thieno[2,3-c]pyrrol]-6′(5′H)-one] | 100 to 1000
19 | Cc1cc(Nc2cc(NC(=O)c3ccccn3)ncn2)[n+]([O-])c2c1C(=O)NC21CCCCC1 [Compound XXIX-AAF, 4′-methyl-5′-oxo-2′-((6-(picolinamido)pyrimidin-4-yl)amino)-5′,6′-dihydrospiro[cyclohexane-1,7′-pyrrolo[3,4-b]pyridine] 1′-oxide] | 10 to 100
20 | CSc1ncc2c(-c3cc4c(s3)C(=O)NC43CCCCC3)n[nH]c2n1 [Compound XIX, 2′-(6-(Methylthio)-1H-pyrazolo[3,4-d]pyrimidin-3-yl)spiro[cyclohexane-1,4′-thieno[2,3-c]pyrrol]-6′(5′H)-one] | 100 to 1000
21 | COCCNc1cc(Nc2cc3c(s2)C(=O)NC32CCCCC2)ncn1 [Compound XXIII-W, 2′-((6-((2-methoxyethyl)amino)pyrimidin-4-yl)amino)spiro[cyclohexane-1,4′-thieno[2,3-c]pyrrol]-6′(5′H)-one] | 10 to 100
22 | Cc1nc(Nc2cc(C)c3c([n+]2[O-])C2(CCCCC2)NC3=O)cc(N[C@H]2CCOC2)n1 [Compound XXIX-AY, (S)-4′-methyl-2′-((2-methyl-6-((tetrahydrofuran-3-yl)amino)pyrimidin-4-yl)amino)-5′-oxo-5′,6′-dihydrospiro[cyclohexane-1,7′-pyrrolo[3,4-b]pyridine] 1′-oxide] | 10 to 100
23 | Cc1cc(Nc2ncnc3[nH]cnc23)[n+]([O-])c2c1C(=O)NC21CCCCC1 [Compound XXIX-O, 2′-((9H-purin-6-yl)amino)-4′-methyl-5′-oxo-5′,6′-dihydrospiro[cyclohexane-1,7′-pyrrolo[3,4-b]pyridine] 1′-oxide] | 10 to 100
